The text below walks through data of patent US11459313B2, “Aziridinyl and amino dimeric naphthoquinone compounds and use for acute myeloid leukemia” (University of Maryland, Baltimore, priority 2016, dated 2022).

For data set [1], the system named is MOLM-14 cells. In words: Cell survival assay (trypan blue exclusion), MOLM-14. The conditions noted are these: 72 hours; at 0.1, 1, 10 and 100 μM. In kind it is cell-based, human. How it is done: (§1) MOLM-.14 and THP-1 cells were seeded in 96-well plates and treated with DMSO, mono- and bis-aziridinyl dimeric naphthoquinone compounds, or dimethylamine dimeric naphthoquinone Compound 114 as previously described. Cells were incubated for 72 hours, and then counted using trypan blue exclusion on the Countess® automated cell counter (Life Technologies®). Cell counts were performed in duplicates, and the averages were graphed using GraphPad Prism® software (GraphPad®).
(§2) Cell survival was determined using trypan blue exclusion, in which cells are plated and the following day treated similarly to the proliferation assay. The bis-aziridinyl dimeric naphthoquinone Compound 101 was effective in decreasing cell number at increasing concentrations of compound in MOLM-14 and THP1 cells.

The subject of data set [2] is MOLM-14 cells. In words: WST-1 cell proliferation assay, MOLM-14. The settings on record: Homo sapiens. It is filed as cell-based, human. How it is done: (§3) Cell lines were seeded into 96-well plates the afternoon prior to treatment. Approximately 18 hours later, bis and mono-aziridine dimeric naphthoquinone compounds were semi-serially diluted in dimethyl sulfoxide (DMSO) and then growth medium, and added to cells. Plates were incubated for 72 hours prior to addition of WST-1 (Promega®). Plates were read after 4 additional hours of incubation at 37° C. using a Bio-Tek Synergy® HT plate reader (Bio-Tek®). Data were analyzed and graphed using GraphPad Prism® Software (Graph Pad®).
(§4) Primary AML cells from patients and cell lines were seeded into 96-well plates the afternoon prior to treatment. Eighteen hours later, amino-dimeric naphthoquinone Compounds 106, 101, and 114 were semi-serially diluted in dimethyl sulfoxide (DMSO) and then growth medium, and added to the cells. In order to quantitate proliferation of metabolically active cells, plates were incubated for 72 hours for cell lines and 48 hours for primary AML cells prior to addition of water-soluble tetrazolium (WST-1) (Clontech®). Plates were read after four additional hours of incubation at 37° C. using a Bio-Tek Synergy® HT plate reader (Bio-Tele®). Data were analyzed and graphed using GraphPad Prism® Software (GraphPad®). IC50 was defined as the concentration that decreases viable cell numbers by 50%. IC50 values were calculated as mean±standard deviation from at least two independent experiments. If availability of primary blasts was limited, the IC50 was obtained from a single experiment.
To investigate antiproliferative activity of amino-dimeric naphthoquinones against AML cells, an MTT-like cell proliferation assay was performed in the AML cell lines using WST-1 (water soluble tetrazolium salts; Promega®). MOLM-14 and AML-D cells, as well as normal hematopoietic bone marrow cells from a healthy donor, were exposed to a range of concentrations of Compound 101. Human leukemia cells were cultured in the presence of the compound for 72 hours (48 hours for primary cells) and WST-1 reagent was then added. The cells then were monitored for cell growth or the number of cells proliferating and the IC50 calculated. The IC50 is the concentration at which 50% of the cells are not proliferating compared to control cells treated with vehicle. See FIG. 2A, FIG. 2B, and FIG. 2C for representative graphs of these IC50 determinations.
A general note: Tetrazolium assays rely on reduction of a dye to a coloured formazan, in cell work by metabolically active cells.

The nature of data set [3]: Safety and tolerability in NSG mice. It is filed as in vivo. The settings on record: female NSG mice; 5, 10 or 15 mg/kg intraperitoneal daily for 5 days, one week observation. How it is done: Considering the significant antineoplastic, activity of Compound 101, the safety and tolerability of this agent was tested in vivo on female NSG nice. Groups of three female NOD.Cg-Prkdc^scid Il2rg^tm1Wjl/SzJ (NSG) mice were tested with 5, 10 or 15 mg/kg of Compound 101 delivered by intraperitoneal injection daily for 5 consecutive days, and the mice monitored for one additional week. […] An asterisk (*) denotes days of dosing.

For data set [4], the system named is MOLM-14 cells. The experiment in a line: Gamma-H2Ax immunofluorescence assay, MOLM-14. In kind it is cell-based, human. The conditions noted are these: 24 hours; 200 nM, 1.0 and 2.0 μM. How it is done: MOLM-14 cells were seeded in the afternoon and the following morning treated with DMSO, or aziridinyl-dimeric naphthoquinone Compound 101 at 1×, 5×; or 10× IC50 concentrations. Cells were harvested at 24 and 48 hours. Briefly, cells were washed twice with PBS, counted, and resuspended into PBS/2% FBS. Approximately 150,000 cells were pelleted on Superfrost® microslides (Thermo Fisher Scientific®) using a cytospin machine (Thermo Fisher Scientific®) for 10 minutes at 800 RPM. Slides were air-dried for 5 minutes, then fixed in 4% paraformaldehyde for 15 minutes, washed with PBS 3 times, each time for 5 minutes and permeabilized with permeabilization buffer (50 mM NaCl, 3 mM MgCl2, 10 mM HEPES, 200 mM sucrose, and 0.5% Triton-X-100) for 10 minutes. After overnight blocking in PBS/10% FBS, slides were washed 3 times, each time for 5 minutes with wash buffer (PBS, 1% BSA, and 0.1% Triton-X-100), stained with 1:100 anti-phosphohistone H2Ax antibody (Millipore®), washed with wash buffer again 3 times, each time for 5 minutes, and stained with 1:200 goat anti-mouse IgG, Dylight 594® (Thermo Scientific®), washed 3 times, each time for 5 minutes with wash buffer, and mounted with Vectashield® mounting medium with 4′,6-diamidino-2-phenylindole (DAPI, Vector Labs®). Slides sat overnight and were sealed the following day with clear nail polish. […]

The subject of data set [5] is THP-1 cells. In words: WST-1 cell proliferation assay, THP-1. It is filed as cell-based. The conditions noted are these: Homo sapiens, THP-1. On the procedure:
as §3, §4

In data set [6] the test system is normal hematopoietic bone marrow cells. The experiment in a line: WST-1 cell proliferation assay, normal bone marrow cells. In kind it is cell-based. The conditions noted are these: Homo sapiens. How it is done: Bone marrow aspirate or whole blood samples were received in sodium ethylenediaminetetraacetate (EDTA) tubes, and diluted 1:1 with phosphate-buffered saline (PBS). Cells were isolated from diluted samples by density separation in lymphocyte separation medium (Corning Cellgro®) with centrifugation at 400×g for 30 minutes with no brake. Cells from healthy donor whole blood were isolated in similar manner. N01mal bone marrow mononuclear cells (NBM) were purchased from Lonza®. Viable cell numbers were calculated using trypan blue exclusion. All primary AML cells and cell lines were grown in 37° C. with 5% CO2 atmosphere in Roswell Park Memorial institute (RPMI) 1640 medium (Life Technologies®) supplemented with heat-inactivated 10% (v/v) fetal bovine serum. […]
Primary AML cells from patients and cell lines were seeded into 96-well plates the afternoon prior to treatment. […] In order to quantitate proliferation of metabolically active cells, plates were incubated for 72 hours for cell lines and 48 hours for primary AML cells prior to addition of water-soluble tetrazolium (WST-1) (Clontech®). Plates were read after four additional hours of incubation at 37° C. using a Bio-Tek Synergy® HT plate reader (Bio-Tele®). Data were analyzed and graphed using GraphPad Prism® Software (GraphPad®). […] IC50 values were calculated as mean±standard deviation from at least two independent experiments. […]

The test system of data set [7] is THP-1 cells. In words: Cell survival assay (trypan blue exclusion), THP-1. It is filed as cell-based, human. The settings on record: 72 hours; at 1, 10 and 100 μM. How it is done: as §1, §2

Read-outs that look alike come from different tables or passages of the source. A value given as a limit tells only on which side of the number the result lay.

On to `O=C1C(C2=C(N3CC3)C(=O)c3ccccc3C2=O)=C(N2CC2)C(=O)c2ccccc21` [Compound 101, 3,3′-di(aziridin-1-yl)-[2,2′-binaphthalene]-1,1 4,4′-tetrone], for which the “viable cells, MOLM-14” value with MOLM-14 cells [1] was “statistically significant (p<0.05) reduction in viable cells”. Also, the IC50 (commonly the concentration needed to halve the response being measured) with MOLM-14 cells [2] (MOLM-14, 72 h, 72 hours, WST-1, read-out: IC50 against MOLM-14 cells) was 150 to 200 nM; with MOLM-14 cells [2] (MOLM-14, Example 5 text, read-out: IC50 MOLM-14) it was 180 ± 60 nM; in the data set on MOLM-14 cells [2] (MOLM-14, Table 5, read-out: IC50 MOLM-14 (n)) it was 250 ± 200 nM; in the data set with THP-1 cells [5] (Example 5, read-out: IC50 THP-1), 650 ± 300 nM; with THP-1 cells [5] (Table 5, read-out: IC50 THP1 (n)), 1600 ± 1000 nM; in data set [6] it was 3370 ± 1270 nM. Further, the “mean body weight loss” value in data set [3] is given as at most 10%. Also, the tolerability entry in data set [3] was “tolerated the compound well with no weight loss observed”. In addition, the “γ-H2Ax phosphorylation (double-stranded DNA breaks), MOLM-14” value in the data set on MOLM-14 cells [4] is listed as “substantial γ-H2Ax phosphorylation”. Besides, the “viable cells, THP-1” value with THP-1 cells [7] is on record as “statistically significant (p<0.05) reduction in viable cells”.
